Columns and labels:
[1] = as described in US patent 4749518; cited from earlier work
[2] = Radiation resistance of the extractants (gamma irradiation); format: physicochemical; conditions: for Distribution ratio DMe after irradiation / Distribution ratio after irradiation, % of original: dose 100.0 kGr (10^7 rad); for Usefulness of extractant after irradiation: dose 285.3 kGr
Source text: The radiation resistance of the extractants according to the invention used for extraction radionuclides of strontium or cesium was studied. For this purpose, reaction mixtures consisting of biphase water-organic systems containing extractants based on crown ethers DCH18C6 or DB21C7 in Fluoroheptanol n3 and aqueous nitrate waste solutions, and, for comparison, reaction mixtures containing extractants based on crown ethers Crown XVI or Crown XVII with a cation exchanger—dinanylnaphthalene of sulfonic acids in a matrix solution comprising tributyl phosphate and kerosene were irradiated with gamma-rays […] in a temperature-controlled cell of stainless steel with continuous agitation by bubbling. The maximum integrated radiation dose was equal to 285.3 kGr. The extractant samples were tested and the extraction characteristics were measured before and after the irradiation to determine a decrease of the distribution ratio DMe due to the radiological destruction of extractant components.

[3] = as described in US patent 4749518; cited from earlier work; remark: listed apart in the source
[4] = as described in US patent 4749518; cited from earlier work; remark: listed apart in the source
[5] = as described in US patent 4749518; cited from earlier work; remark: listed apart in the source
[6] = as described in US patent 4749518; cited from earlier work; remark: listed apart in the source
[7] = as described in US patent 4749518; with dinanylnaphthalene sulfonic acid in tributyl phosphate and kerosene; cited from earlier work
[8] = as described in US patent 4749518; cited from earlier work; remark: listed apart in the source
[9] = as described in US patent 4749518; cited from earlier work; remark: listed apart in the source
[10] = as described in US patent 4749518; cited from earlier work; remark: listed apart in the source
[11] = Influence of nitric acid concentration on extraction of sodium; format: physicochemical; conditions: crown ether about 0.1 mol/l in Fluoroheptanol n3
Method: Selected for study were extractants containing crown ethers: DB18C6, DTBDB18C6, DCH18C6 or DB21C7 in a concentration of about 0.1 mol/l in Fluoroheptanol n3. Used as experimental solutions were aqueous solutions of sodium nitrate whose concentration was determined using radiometric techniques on previously added aliquot of a sodium-22 isotope.

[12] = Influence of sodium concentration on extraction of cesium; format: physicochemical; conditions: Cs 1 g/l, nitric acid about 3.0 mol/l
Method: Extraction of cesium was made involving starting solutions containing 1 g/l of cesium in nitric acid having concentration about of 3.0 mol/l at different concentration of sodium. The solutions were treated with the extractants according to the invention containing crown ether DTBDB18C6 in a concentration about of 0.1 mol/l in fluoroheptanol n3.

[13] = Distribution ratio of strontium extracted in organic solutions of crown ethers (Table 1); format: physicochemical; conditions: Sr and Cs 1 g/l, nitric acid about 3.0 mol/l
Method: (§1) Study was carried out for determining the distribution ratios of radionuclides, for example, strontium or cesium to be extracted by the extractants according to the invention containing various crown ethers as a complexing agent: bis(tert-butylbenzo)-18-crown-6 (subsequently referred to as DTBDB18C6), di-isooctylbenzo-18-crown-6 (subsequently referred to as DIODB18C6), bis(tert-butylcyclohexane-18-crown-6 (subsequently referred to as DTBDCH18C6), di-isooxyldicyclohexane-18-crown-6 (subsequently referred to as DIODCH18C6), bicyclohexane-18-crown-6 (subsequently referred to as DCH18C6) or dibenzo-21-crown-7 (subsequently referred to as DB21C7), in an organic solvent according to the invention: polyfluorinated telomeric alcohol 1,1,7-trihydrododecafluoroheptanol-1 (subsequently referred to as fluoroheptanol n3).
(§2) For comparison, the distribution ratios of strontium and cesium were determined using extractants containing similar crown ethers in another organic solvent (decane).
(§3) Taken for the tests were experimental aqueous nitrate solutions containing strontium and cesium in a concentration of 1 g/l with a content of nitric acid of about 3.0 mol/l.

[14] = Distribution ratio of cesium extracted in organic solutions of crown ethers (Table 1); format: physicochemical; conditions: Sr and Cs 1 g/l, nitric acid about 3.0 mol/l
Method: as §1, §2, §3

[15] = Influence of nitric acid concentration on cesium extraction from solution No.1; format: physicochemical; conditions: solution No.1
Source text: The dependence of extraction of cesium by organic solutions DTBDB18C6 in fluoropentanol n3 and DB21C7 in Fluoroheptanol n3 at a concentration of nitric acid in a starting solution was studied. Solution No.1 whose composition is listed in Table 2 was used as a starting solution.

[16] = Interaction of extractants with sodium (organic/aqueous phase concentration); format: physicochemical
Method: The characteristics of the extractants according to the invention in the process of extraction of sodium from acidic aqueous solutions of high-level waste were determined. For this purpose, the concentration of sodium in the organic and aqueous phases containing extractants based on DTBDB18C6 or DCH18C6 or DB21C7 in a concentration about of 0.05 mol/l in fluoroheptanol n3 were analyzed.

[17] = crown ether 0.1 mole/l in Fluoroheptanol n3
[18] = crown ether 0.1 mole/l in Decane

For `CCCCCCC(O)C1CCC2OCCOCCOC3CCC(C(O)CCCCCC)CC3OCCOCCOC2C1` (mixture of isomers) [Crown XVI, bis-4,4′(5′)[1-hydroxyheptyl]cyclohexo-18-crown-6], which “Distribution ratios, Sr” value [1] is on record?
The value was 3.84.

And the “Distribution ratio before irradiation” value ([2]; Sr)?
Its value is 1.98.

What about the “Distribution ratio DMe after irradiation” value ([2]; Sr) of the same compound?
Its value is 1.56.

What about the “Distribution ratio after irradiation, % of original” value ([2]; Sr) of the same compound?
Its value is 78.78%.

What about the “Loss of the distribution ratio of strontium after irradiation” value ([2]; dose 100 kGr) of the same compound?
Its value is “about 21%”.

And the “Usefulness of extractant after irradiation” value [2]?
The value was “practically useless”.

And the “Distribution ratios, Pd” value [3]?
The value was 0.05.

What about the “Distribution ratios, Zr” value [4] of the same compound?
Its value is 1.41.

What about the “Distribution ratios, Rare-earth” value [5] of the same compound?
Its value is 0.06.

And the “Distribution ratios, Cs” value [6]?
The value was 0.03.

What about the “Distribution ratios, Ba” value [7] of the same compound?
Its value is 4.2.

What about the “Distribution ratios, Ru” value [8] of the same compound?
Its value is 0.26.

And the “Distribution ratios, Y” value [9]?
Its value is 0.02.

What about the “Distribution ratios, Rb” value [10] of the same compound?
Its value is 0.11.

Which “Distribution ratios, Sr” value [1] does the source give for `CCCCC(CC)C(O)c1ccc2c(c1)OCCOCCOc1cc(C(O)C(CC)CCCC)ccc1OCCOCCO2` (mixture of isomers) [Crown XVII, bis-4,4′(5′)[1-hydroxy-2-ethylhexyl]benzo-18-crown-6] here?
Its value is 0.06.

What about the “Distribution ratio before irradiation” value ([2]; Cs) of the same compound?
Its value is 1.59.

What about the “Distribution ratio DMe after irradiation” value ([2]; Cs) of the same compound?
Its value is 1.04.

What about the “Distribution ratio after irradiation, % of original” value ([2]; Cs) of the same compound?
The value was 65.41%.

And the “Reduction of the distribution ratio of cesium after irradiation” value ([2]; dose 100 kGr)?
The value was 35%.

What about the “Usefulness of extractant after irradiation” value [2] of the same compound?
Its value is “practically useless”.

And the “Distribution ratios, Pd” value [3]?
The value was 0.22.

And the “Distribution ratios, Zr” value [4]?
Its value is 2.09.

And the “Distribution ratios, Rare-earth” value [5]?
The value was 0.17.

And the “Distribution ratios, Cs” value [6]?
The value was 1.59.

What about the “Distribution ratios, Ba” value [7] of the same compound?
The value was 0.03.

What about the “Distribution ratios, Ru” value [8] of the same compound?
Its value is 0.31.

What about the “Distribution ratios, Y” value [9] of the same compound?
The value was 0.02.

What about the “Distribution ratios, Rb” value [10] of the same compound?
The value was 0.29.

For `c1ccc2c(c1)OCCOCCOc1ccccc1OCCOCCO2` [DB18C6, dibenzo-18-crown-6], which “Distribution ratios of sodium” value ([11]; nitric acid 0 mol/l) is on record?
The value was 0.025.

And the “Distribution ratios of sodium” value ([11]; nitric acid 0.1 mol/l)?
The value was 0.04.

And the “Distribution ratios of sodium” value ([11]; nitric acid 0.5 mol/l)?
Its value is 0.15.

And the “Distribution ratios of sodium” value ([11]; nitric acid 1.0 mol/l)?
Its value is 0.21.

And the “Distribution ratios of sodium” value ([11]; nitric acid 3.0 mol/l)?
Its value is 0.49.

And the “Distribution ratios of sodium” value ([11]; nitric acid 5.0 mol/l)?
The value was 0.67.

What does the source list for `CC(C)(C)c1ccc2c(c1)OCCOCCOc1ccc(C(C)(C)C)cc1OCCOCCO2` [DTBDB18C6, bis(tert-butylbenzo)-18-crown-6]?
Distribution ratios of sodium ([11]; nitric acid 0 mol/l): 0.03; Distribution ratios of sodium ([11]; nitric acid 0.1 mol/l): 0.04; Distribution ratios of sodium ([11]; nitric acid 0.5 mol/l): 0.17; Distribution ratios of sodium ([11]; nitric acid 1.0 mol/l): 0.27; Distribution ratios of sodium ([11]; nitric acid 3.0 mol/l): 0.55; Distribution ratios of sodium ([11]; nitric acid 5.0 mol/l): 0.64; Cesium distribution ratio ([12]; sodium nitrate 0 mole/l, crown ether about 0.1 mol/l in fluoroheptanol n3): 16.0; Cesium distribution ratio ([12]; sodium nitrate 0.02 mole/l): 9.0; Cesium distribution ratio ([12]; sodium nitrate 0.03 mole/l): 9.1; Cesium distribution ratio ([12]; sodium nitrate 0.04 mole/l): 9.3; Cesium distribution ratio ([12]; sodium nitrate 0.20 mole/l): 3.0; Distribution ratio Strontium [13, 17]: 0.11; Distribution ratio Cesium [14, 17]: 15.45; Distribution ratios of cesium ([15]; nitric acid 0 mol/l, Fluoroheptanol n3): 2.5; Distribution ratios of cesium ([15]; nitric acid 0.1 mol/l): 7.1; Distribution ratios of cesium ([15]; nitric acid 0.5 mol/l): 12.8; Distribution ratios of cesium ([15]; nitric acid 1.0 mol/l): 12.3; Distribution ratios of cesium ([15]; nitric acid 2.0 mol/l): 10.3; Distribution ratios of cesium ([15]; nitric acid 3.0 mol/l): 8.2; Distribution ratios of cesium ([15]; nitric acid 4.0 mol/l): 6.0; Distribution ratios of cesium ([15]; nitric acid 5.0 mol/l): 4.0; Distribution ratios of cesium ([15]; nitric acid 6.0 mol/l): 2.7; Distribution ratios of cesium ([15]; nitric acid 7.0 mol/l): 1.1; Distribution ratios of cesium ([15]; nitric acid 8.0 mol/l): 0; Sodium concentration in the organic phase ([16]; sodium in the aqueous phase 0.01 mol/l, crown ether about 0.05 mol/l in fluoroheptanol n3): 0 mol/L; Sodium concentration in the organic phase ([16]; sodium in the aqueous phase 0.1 mol/l, crown ether about 0.05 mol/l): 0.035 mol/L; Sodium concentration in the organic phase ([16]; sodium in the aqueous phase 0.2 mol/l, crown ether about 0.05 mol/l): 0.07 mol/L; Sodium concentration in the organic phase ([16]; sodium in the aqueous phase 0.4 mol/l, crown ether about 0.05 mol/l): 0.14 mol/L

Which results are given for `CC(C)(C)C1CCC2OCCOCCOC3CC(C(C)(C)C)CCC3OCCOCCOC2C1` (centres unmarked) [DTBDCH18C6]?
Distribution ratio Strontium [13, 18]: <0.001; Distribution ratio Strontium [13, 17]: 1.91

With di-isooctylbenzo-18-crown-6 [DIODB18C6] as the compound, how does the “Distribution ratio Strontium” value [13, 18] read?
The value was 0.05.

And the “Distribution ratio Strontium” value [13, 17]?
Its value is 0.06.

And the “Distribution ratio Cesium” value [14, 18]?
Its value is 0.004.

And the “Distribution ratio Cesium” value [14, 17]?
Its value is 4.23.

With “di-isooxyldicyclohexane-18-crown-6 [DIODCH18C6]” as the compound, how does the “Distribution ratio Strontium” value [13, 18] read?
Its value is <0.001.

And the “Distribution ratio Strontium” value [13, 17]?
Its value is 0.106.

And the “Distribution ratio Cesium” value [14, 18]?
Its value is 0.004.

Source: US20080014133A1, “Extraction Of Radionuclides By Crown Ether-Containing Extractants” (priority 2004, published 2008)
